Patent US8088815B2, “Spiroindolinone pyrrolidines” (Hoffman-La Roche Inc., priority 2009, dated 2012)

molecular target: interaction between p53 and MDM2 proteins (Homo sapiens, UniProt Q00987); assay: HTRF assay of inhibition of the p53-MDM2 interaction (GST-MDM2 / biotinylated p53 peptide); assay type: binding; settings: recombinant GST-tagged MDM2 and biotinylated p53 peptide, bsa:0.02%
Sequence (Q00987 whole entry): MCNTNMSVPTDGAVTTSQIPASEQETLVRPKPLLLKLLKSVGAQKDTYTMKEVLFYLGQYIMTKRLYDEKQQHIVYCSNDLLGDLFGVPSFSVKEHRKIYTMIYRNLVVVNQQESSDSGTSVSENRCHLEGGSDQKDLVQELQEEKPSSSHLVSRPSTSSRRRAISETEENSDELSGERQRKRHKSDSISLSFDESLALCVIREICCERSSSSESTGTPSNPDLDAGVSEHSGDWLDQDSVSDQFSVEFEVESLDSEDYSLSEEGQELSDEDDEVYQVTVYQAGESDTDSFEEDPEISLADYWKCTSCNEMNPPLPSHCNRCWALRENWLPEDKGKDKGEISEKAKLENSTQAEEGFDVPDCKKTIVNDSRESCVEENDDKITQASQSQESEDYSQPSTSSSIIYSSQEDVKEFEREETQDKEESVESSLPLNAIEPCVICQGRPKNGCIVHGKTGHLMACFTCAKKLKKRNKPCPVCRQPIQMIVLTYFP

| IC50 [nM] | Compound |
| --- | --- |
| 5 | COc1cc(C(=O)O)ccc1NC(=O)[C@@H]1N[C@@H](CC(C)(C)C)[C@@]2(C(=O)Nc3cc(Cl)ccc32)[C@H]1c1cccc(Cl)c1F [Example 111, chiral 4-{[(2′S,3′R,4′S,5′R)-6-chloro-4′-(3-chloro-2-fluoro-phenyl)-2′-(2,2-dimethyl-propyl)-2-oxo-1,2-dihydro-spiro[indole-3,3′-pyrrolidine]-5′-carbonyl]-amino}-3-methoxy-benzoic acid] |
| 5 | COc1cc(OCCO)ccc1NC(=O)[C@@H]1N[C@@H](CC(C)(C)C)[C@@]2(C(=O)Nc3cc(Cl)ccc32)[C@H]1c1cccc(Cl)c1F [Example 134, chiral (2′S,3′R,4′S,5′R)-6-chloro-4′-(3-chloro-2-fluoro-phenyl)-2′-(2,2-dimethyl-propyl)-2-oxo-1,2-dihydro-spiro[indole-3,3′-pyrrolidine]-5′-carboxylic acid [4-(2-hydroxy-ethoxy)-2-methoxy-phenyl]-amide] |
| 5 | CC(C)(C)C[C@@H]1N[C@@H](C(=O)Nc2ccc(C#N)cc2)[C@H](c2cccc(Cl)c2F)[C@]12C(=O)Nc1cc(Cl)ccc12 [Example 137, chiral (2′S,3′R,4′S,5′R)-6-chloro-4′-(3-chloro-2-fluoro-phenyl)-2′-(2,2-dimethyl-propyl)-2-oxo-1,2-dihydro-spiro[indole-3,3′-pyrrolidine]-5′-carboxylic acid (4-cyano-phenyl)-amide] |
| 11 | CC(C)(C)C[C@@H]1N[C@@H](C(=O)Nc2ccccc2)[C@H](c2cccc(Cl)c2F)[C@]12C(=O)Nc1cc(Cl)ccc12 [Example 147, chiral (2′S,3′R,4′S,5′R)-6-chloro-4′-(3-chloro-2-fluoro-phenyl)-2′-(2,2-dimethyl-propyl)-2-oxo-1,2-dihydro-spiro[indole-3,3′-pyrrolidine]-5′-carboxylic acid phenylamide] |
| 5 | COc1cc(C(N)=O)ccc1NC(=O)[C@@H]1N[C@@H](CC(C)(C)C)[C@@]2(C(=O)Nc3cc(Cl)ccc32)[C@H]1c1cc(F)cc(Cl)c1 [Example 148, chiral (2′S,3′R,4′R,5′R)-6-chloro-4′-(3-chloro-5-fluoro-phenyl)-2′-(2,2-dimethyl-propyl)-2-oxo-1,2-dihydro-spiro[indole-3,3′-pyrrolidine]-5′-carboxylic acid (4-carbamoyl-2-methoxy-phenyl)-amide] |
| 4 | COc1cc(S(=O)(=O)N2CCOCC2)ccc1NC(=O)[C@@H]1N[C@@H](CC(C)(C)C)[C@@]2(C(=O)Nc3cc(Cl)ccc32)[C@H]1c1cccc(Cl)c1F [Example 154, chiral (2′S,3′R,4′S,5′R)-6-chloro-4′-(3-chloro-2-fluoro-phenyl)-2′-(2,2-dimethyl-propyl)-2-oxo-1,2-dihydro-spiro[indole-3,3′-pyrrolidine]-5′-carboxylic acid [2-methoxy-4-(morpholine-4-sulfonyl)-phenyl]-amide] |
| 10 | COc1cc(OC2CCOCC2)ccc1NC(=O)[C@@H]1N[C@@H](CC(C)(C)C)[C@@]2(C(=O)Nc3cc(Cl)ccc32)[C@H]1c1cccc(Cl)c1F [Example 157, chiral (2′S,3′R,4′S,5′R)-6-chloro-4′-(3-chloro-2-fluoro-phenyl)-2′-(2,2-dimethyl-propyl)-2-oxo-1,2-dihydro-spiro[indole-3,3′-pyrrolidine]-5′-carboxylic acid [2-methoxy-4-(tetrahydro-pyran-4-yloxy)-phenyl]-amide] |
| 14 | COc1cc(CC(=O)OC(C)(C)C)ccc1NC(=O)[C@@H]1N[C@@H](CC(C)(C)C)[C@@]2(C(=O)Nc3cc(Cl)ccc32)[C@H]1c1cccc(Cl)c1F [Example 159, chiral (4-{[(2′S,3′R,4′S,5′R)-6-chloro-4′-(3-chloro-2-fluoro-phenyl)-2′-(2,2-dimethyl-propyl)-2-oxo-1,2-dihydro-spiro[indole-3,3′-pyrrolidine]-5′-carbonyl]amino}-3-methoxy-phenyl)-acetic acid tert-butyl ester] |
| 5 | COc1cc(CC(=O)O)ccc1NC(=O)[C@@H]1N[C@@H](CC(C)(C)C)[C@@]2(C(=O)Nc3cc(Cl)ccc32)[C@H]1c1cccc(Cl)c1F [Example 160, chiral (4-{[(2′S,3′R,4′S,5′R)-6-chloro-4′-(3-chloro-2-fluoro-phenyl)-2′-(2,2-dimethyl-propyl)-2-oxo-1,2-dihydro-spiro[indole-3,3′-pyrrolidine]-5′-carbonyl]-amino}-3-methoxy-phenyl)-acetic acid] |
| 4 | COc1cc(CC(N)=O)ccc1NC(=O)[C@@H]1N[C@@H](CC(C)(C)C)[C@@]2(C(=O)Nc3cc(Cl)ccc32)[C@H]1c1cccc(Cl)c1F [Example 161, chiral (2′S,3′R,4′S,5′R)-6-chloro-4′-(3-chloro-2-fluoro-phenyl)-2′-(2,2-dimethyl-propyl)-2-oxo-1,2-dihydro-spiro[indole-3,3′-pyrrolidine]-5′-carboxylic acid (4-carbamoylmethyl-2-methoxy-phenyl)-amide] |
| 11 | COc1cc(OCCSC)ccc1NC(=O)[C@@H]1N[C@@H](CC(C)(C)C)[C@@]2(C(=O)Nc3cc(Cl)ccc32)[C@H]1c1cccc(Cl)c1F [Example 169, chiral (2′S,3′R,4′S,5′R)-6-chloro-4′-(3-chloro-2-fluoro-phenyl)-2′-(2,2-dimethyl-propyl)-2-oxo-1,2-dihydro-spiro[indole-3,3′-pyrrolidine]-5′-carboxylic acid [2-methoxy-4-(2-methylsulfanyl-ethoxy)-phenyl]-amide] |
| 7 | COc1cc(OCCS(C)(=O)=O)ccc1NC(=O)[C@@H]1N[C@@H](CC(C)(C)C)[C@@]2(C(=O)Nc3cc(Cl)ccc32)[C@H]1c1cccc(Cl)c1F [Example 170, chiral (2′S,3′R,4′S,5′R)-6-chloro-4′-(3-chloro-2-fluoro-phenyl)-2′-(2,2-dimethyl-propyl)-2-oxo-1,2-dihydro-spiro[indole-3,3′-pyrrolidine]-5′-carboxylic acid [4-(2-methanesulfonyl-ethoxy)-2-methoxy-phenyl]-amide] |
| 6 | COc1cc(OCCCS(C)(=O)=O)ccc1NC(=O)[C@@H]1N[C@@H](CC(C)(C)C)[C@@]2(C(=O)Nc3cc(Cl)ccc32)[C@H]1c1cccc(Cl)c1F [Example 181, chiral (2′S,3′R,4′S,5′R)-6-chloro-4′-(3-chloro-2-fluoro-phenyl)-2′-(2,2-dimethyl-propyl)-2-oxo-1,2-dihydro-spiro[indole-3,3′-pyrrolidine]-5′-carboxylic acid [4-(3-methanesulfonyl-propoxy)-2-methoxy-phenyl]-amide] |
| 5 | COc1cc(C(=O)O)c(F)cc1NC(=O)[C@@H]1N[C@@H](CC(C)(C)C)[C@@]2(C(=O)Nc3cc(Cl)ccc32)[C@H]1c1cccc(Cl)c1F [Example 221, chiral 4-{[(2′S,3′R,4′S,5′R)-6-chloro-4′-(3-chloro-2-fluoro-phenyl)-2′-(2,2-dimethyl-propyl)-2-oxo-1,2-dihydro-spiro[indole-3,3′-pyrrolidine]-5′-carbonyl]amino}-2-fluoro-5-methoxy-benzoic acid] |
| 5 | CC(C)(C)C[C@@H]1N[C@@H](C(=O)Nc2ccc(CCC(=O)O)cc2)[C@H](c2cccc(Cl)c2F)[C@]12C(=O)Nc1cc(Cl)ccc12 [Example 222, chiral 3-(4-{[(2′S,3′R,4′S,5′R)-6-chloro-4′-(3-chloro-2-fluoro-phenyl)-2′-(2,2-dimethyl-propyl)-2-oxo-1,2-dihydro-spiro[indole-3,3′-pyrrolidine]-5′-carbonyl]-amino}-phenyl)-propionic acid] |
| 7 | COc1cc(C(=O)NC#N)ccc1NC(=O)[C@@H]1N[C@@H](CC(C)(C)C)[C@@]2(C(=O)Nc3cc(Cl)ccc32)[C@H]1c1cccc(Cl)c1F [Example 223, chiral (2′S,3′R,4′S,5′R)-6-chloro-4′-(3-chloro-2-fluorophenyl)-N-(4-(cyanocarbamoyl)-2-methoxyphenyl)-2′-(2,2-dimethyl-propyl)-2-oxospiro[indoline-3,3′-pyrrolidine]-5′-carboxamide] |

| Compound | IC50 [nM] |
| --- | --- |
| rac-4-{[(2′S,3′R,4′R,5′R)-6-chloro-4′-(3-chloro-4-fluoro-phenyl)-2′-(2,2-dimethyl-propyl)-2-oxo-1,2-dihydro-spiro[indole-3,3′-pyrrolidine]-5′-carbonyl]-amino}-3-methoxy-benzoic acid [Example 127] | 12 |
